This note sets out measurements from patent US20120190751A1, “COMPOUNDS FOR TREATMENTS OF INFLAMMATION” (ANA-MAR AB, priority 2009, published 2012).

One experiment concerns the target 5-HT2A receptor (Homo sapiens, UniProt P28223). Nature of the experiment: Radio-ligand binding assay 5-HT2A. As to conditions: 10 μM compound; [3H]-Ketanserin 2 nM; human cortex. The procedure:
(§1) Determination of binding affinities for various 5-HT receptors was performed by radio-ligand binding assays. Briefly, tissue or cells expressing the receptor of interest were suspended in incubation buffer and radio-ligands and 10 μM N-(2-chloro-3,4-dimethoxybenzylidene-amino)guanidine were added. After incubation, separation of bound and free radio-ligand was done by multiple washings with buffer.
(§2) The results were presented as the percent inhibition of specific binding. The IC50 values were determined by a non-linear least square regression analysis using MathIQ™ (ID Business Solution Ltd., UK). The inhibition constants (Ki) were calculated using the equation of Cheng and Prusoff (Cheng Y, Prusoff W H, Biochem. Pharmacol. 22:3099-3108, 1973) using the observed IC50 of the tested compound, the concentration of radioligand employed in the assay and the historical values for the KD of the ligand.

The next experiment concerns the target 5HT2B receptor (Homo sapiens, UniProt P41595). As to the kind of experiment: Radio-ligand binding assay 5-HT2B. Here is the method:
as §1, §2

The target of experiment [1] is T1, 5-HT2C receptor (Homo sapiens, UniProt P28335).
T1 sequence (P28335 33-458): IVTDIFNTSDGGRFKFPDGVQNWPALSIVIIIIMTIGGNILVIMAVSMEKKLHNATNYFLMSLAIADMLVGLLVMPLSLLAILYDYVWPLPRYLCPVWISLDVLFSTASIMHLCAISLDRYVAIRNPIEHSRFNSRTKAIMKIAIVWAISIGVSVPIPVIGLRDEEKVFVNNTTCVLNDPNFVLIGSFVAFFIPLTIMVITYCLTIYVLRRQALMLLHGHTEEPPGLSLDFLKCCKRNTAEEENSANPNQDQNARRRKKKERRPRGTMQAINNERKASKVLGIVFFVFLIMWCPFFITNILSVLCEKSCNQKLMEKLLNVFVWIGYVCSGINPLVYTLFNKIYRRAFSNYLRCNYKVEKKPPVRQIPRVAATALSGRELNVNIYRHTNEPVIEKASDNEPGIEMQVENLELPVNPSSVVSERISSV
As to the kind of experiment: Radio-ligand binding assay 5-HT2C. Here is the method:
as §1, §2

Another experiment concerns the target 5-HT5A receptor (Homo sapiens, UniProt P47898). Nature of the experiment: Radio-ligand binding assay 5-HT5A. The note with it: 10 μM compound; [3H] LSD 1 nM; human rec. HEK293 cells. The procedure:
as §1, §2

Another experiment deals with 5-HT7 receptor (Homo sapiens, UniProt P34969). As to the kind of experiment: Radio-ligand binding assay 5-HT7. As to conditions: 10 μM compound; [3H] LSD 2.5 nM; human rec. CHO cells. The procedure:
as §1, §2

For a further experiment, the target named is T2, 5-HT2B receptor (Rattus norvegicus, UniProt P30994).
T2 construct: induces contraction in the rat stomach fundus from Wistar rats; from tissue; host or cells: rat (Wistar) stomach fundus
T2 sequence (P30994 whole entry): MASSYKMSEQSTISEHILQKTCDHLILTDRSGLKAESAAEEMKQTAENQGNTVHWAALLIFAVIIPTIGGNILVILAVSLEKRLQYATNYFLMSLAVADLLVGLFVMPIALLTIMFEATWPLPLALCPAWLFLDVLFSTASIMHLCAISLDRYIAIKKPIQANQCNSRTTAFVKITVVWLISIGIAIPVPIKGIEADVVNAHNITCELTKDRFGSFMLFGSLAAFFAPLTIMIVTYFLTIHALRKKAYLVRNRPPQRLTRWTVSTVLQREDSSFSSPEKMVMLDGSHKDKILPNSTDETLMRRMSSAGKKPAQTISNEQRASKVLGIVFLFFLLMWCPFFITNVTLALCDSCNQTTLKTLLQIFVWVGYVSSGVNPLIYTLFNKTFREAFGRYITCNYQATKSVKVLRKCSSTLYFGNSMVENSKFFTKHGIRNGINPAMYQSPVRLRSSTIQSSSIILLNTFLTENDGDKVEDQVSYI
As to the kind of experiment: 5-HT2B tissue assay (functionality, rat stomach fundus contraction). In kind it is cell-based. As to conditions: FIG. 2, read-out: IC50, antagonistic effect on 5-HT2B. The procedure: (Cohen M L, Fludzinski L A. Contractile serotonergic receptor in rat stomach fundus. J. Pharmacol. Exp. Ther. (1987 October); 243(1):264-269.)
(§3) FIG. 2. Antagonistic effect of N-(2-chloro-3,4-dimethoxybenzylideneamino)guanidine on 5-HT2B and 5-HT2C receptors. The functionality of the compound was evaluated with the 5-HT2B tissue assay and the 5-HT2C GTPγS binding assay methods.
(§4) N-(2-chloro-3,4-dimethoxybenzylideneamino)guanidine was further tested for functionality against 5-HT2B (Cohen et al. (1987), J. Pharmacol. Exp. Ther. 243:264-269), 5-HT2C (Adlersber M, et al. (2000), J. Neurosci. Res. 61(6):674-685; Cussac D. et al. (2002), Mol. Pharmacol. 62(3):578-589) and 5-HT4 (Reeves et al. (1991), Br. J. Pharmacol. 103:1067-1072).

For experiment [2], the target named is T1, 5-HT2C receptor. Nature of the experiment: 5-HT2C GTPγS binding assay (functionality). In kind it is biochemical. The note with it: FIG. 2, read-out: IC50, antagonistic effect on 5-HT2C. The procedure:
as §3, §4
(In general: Binding of GTPγS marks nucleotide exchange on a G protein.)

Another experiment has as its target 5-HT4 receptor (Rattus norvegicus, UniProt Q62758). Nature of the experiment: 5-HT4 functionality test. The note with it: at 100 μM.
Text: as §4

The next experiment relates to formalin-induced pain. As to the kind of experiment: Formalin test, inflammatory pain model. In kind it is in vivo, rat. The note with it: 30 mg/kg orally 60 min before formalin. From the text:
Inflammatory pain is associated with tissue damage and the resulting inflammatory process is related to conditions such as arthritis and many autoimmune disease states. The formalin test in rats is a widely used tool when studying inflammatory pain in animals (Dubuisson, D., and Dennis, S. G. (1977), Pain 4:161-174; Wheeler-Aceto, H., et al. (1990), Pain 40:229-238). This model allows the study of two different types of pain that appears in two separate phases: phase 1 which is a direct stimulation of the nerve by the formalin and thus resembles the acute pain, followed by phase 2 which is an inflammatory-reaction induced pain similar to the pain in, e.g., arthritis. […]
In accordance with the literature (Sufka K J, et al., Eur J Pain (1998), 2(4):351-8; Maione S, et al., Br. J. Pharmacol. 2007; 150:766-781), nociceptive response was monitored in consecutive 5-min periods for 60 min following formalin injection. In particular, nociceptive responses were recorded by measuring the cumulative time of lifting, licking, shaking and flinching of the injected paw per unit time (5 minutes). The nociceptive response was measured both as every 5 minutes and as total time of the first phase (0-15 min) and the second phase (15-60 min). […]

Setting [3] is: 10 different concentrations, Cheng-Prusoff, FIG. 1.

Sequence of 5HT2B receptor (P41595 whole entry): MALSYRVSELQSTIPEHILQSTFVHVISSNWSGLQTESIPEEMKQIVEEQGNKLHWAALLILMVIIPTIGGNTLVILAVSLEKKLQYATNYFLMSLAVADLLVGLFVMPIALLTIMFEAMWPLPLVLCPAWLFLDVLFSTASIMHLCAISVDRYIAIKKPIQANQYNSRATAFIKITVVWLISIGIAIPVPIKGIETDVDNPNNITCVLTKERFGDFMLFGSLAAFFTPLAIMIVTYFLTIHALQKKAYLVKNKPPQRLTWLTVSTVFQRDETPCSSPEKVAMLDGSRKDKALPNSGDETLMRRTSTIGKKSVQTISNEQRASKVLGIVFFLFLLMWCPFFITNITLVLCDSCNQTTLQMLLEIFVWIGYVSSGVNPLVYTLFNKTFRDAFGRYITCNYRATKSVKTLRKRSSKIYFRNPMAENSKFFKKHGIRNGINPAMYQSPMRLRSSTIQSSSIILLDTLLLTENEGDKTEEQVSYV
Sequence of 5-HT7 receptor (P34969 whole entry): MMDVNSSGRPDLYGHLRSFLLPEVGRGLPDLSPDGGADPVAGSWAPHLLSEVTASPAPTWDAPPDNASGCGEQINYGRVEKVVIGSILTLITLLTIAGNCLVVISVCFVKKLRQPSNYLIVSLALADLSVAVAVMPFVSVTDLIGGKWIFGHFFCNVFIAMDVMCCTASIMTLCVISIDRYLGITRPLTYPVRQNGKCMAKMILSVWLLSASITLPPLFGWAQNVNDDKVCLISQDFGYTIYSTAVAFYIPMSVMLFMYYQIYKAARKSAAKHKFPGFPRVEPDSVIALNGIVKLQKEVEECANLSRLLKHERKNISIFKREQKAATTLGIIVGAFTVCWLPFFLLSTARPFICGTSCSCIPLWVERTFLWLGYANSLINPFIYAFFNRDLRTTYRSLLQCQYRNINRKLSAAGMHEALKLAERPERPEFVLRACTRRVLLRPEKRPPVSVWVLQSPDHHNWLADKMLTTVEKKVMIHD
Sequence of 5-HT2A receptor (P28223 whole entry): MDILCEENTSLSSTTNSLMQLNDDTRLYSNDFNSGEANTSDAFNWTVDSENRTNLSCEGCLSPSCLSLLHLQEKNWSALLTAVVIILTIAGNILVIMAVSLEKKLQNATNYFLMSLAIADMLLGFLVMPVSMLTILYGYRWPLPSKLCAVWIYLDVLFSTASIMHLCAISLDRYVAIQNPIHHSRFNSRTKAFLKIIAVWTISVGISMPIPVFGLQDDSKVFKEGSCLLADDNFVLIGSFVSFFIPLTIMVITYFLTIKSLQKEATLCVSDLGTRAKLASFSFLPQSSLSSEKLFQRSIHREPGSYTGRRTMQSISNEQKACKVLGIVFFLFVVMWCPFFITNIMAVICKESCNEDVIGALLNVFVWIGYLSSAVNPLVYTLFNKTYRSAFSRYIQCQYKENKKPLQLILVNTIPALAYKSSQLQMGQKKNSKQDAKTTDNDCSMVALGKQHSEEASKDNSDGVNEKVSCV
Sequence of 5-HT4 receptor (Q62758 whole entry): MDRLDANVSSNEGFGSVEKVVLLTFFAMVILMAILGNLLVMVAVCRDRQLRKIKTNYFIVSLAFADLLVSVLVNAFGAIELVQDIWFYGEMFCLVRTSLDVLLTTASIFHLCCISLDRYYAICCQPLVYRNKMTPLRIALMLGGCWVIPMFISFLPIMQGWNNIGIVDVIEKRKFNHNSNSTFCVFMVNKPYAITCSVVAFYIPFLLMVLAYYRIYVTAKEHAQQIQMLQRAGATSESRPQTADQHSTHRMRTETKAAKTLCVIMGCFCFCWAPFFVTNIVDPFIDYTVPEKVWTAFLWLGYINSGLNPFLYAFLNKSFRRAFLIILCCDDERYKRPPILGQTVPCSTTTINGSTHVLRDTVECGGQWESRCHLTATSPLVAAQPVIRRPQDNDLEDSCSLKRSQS
Sequence of 5-HT5A receptor (P47898 whole entry): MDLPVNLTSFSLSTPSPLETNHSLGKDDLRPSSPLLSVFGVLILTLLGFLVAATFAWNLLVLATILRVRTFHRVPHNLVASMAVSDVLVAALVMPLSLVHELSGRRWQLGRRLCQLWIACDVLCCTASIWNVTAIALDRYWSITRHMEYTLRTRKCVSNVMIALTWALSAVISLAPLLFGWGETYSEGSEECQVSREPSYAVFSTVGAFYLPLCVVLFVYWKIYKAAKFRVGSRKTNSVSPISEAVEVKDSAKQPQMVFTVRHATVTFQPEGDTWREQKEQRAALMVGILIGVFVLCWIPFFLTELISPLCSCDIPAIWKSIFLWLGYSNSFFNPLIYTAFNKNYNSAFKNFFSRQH

For orientation: inhibition means the change of the read-out against control, counted positive when it falls. In general, Ki refers to the dissociation constant of the complex between target and ligand, obtained from inhibition or displacement. High values mean weaker binding, low ones tighter binding. The IC50 is the point on the concentration scale where inhibition reaches its midpoint. With `COc1ccc(C=NNC(=N)N)c(Cl)c1OC` [N-(2-chloro-3,4-dimethoxybenzylideneamino)guanidine], the inhibition at 10 µM came out at 45% on 5-HT2A receptor; 107% on 5HT2B receptor (10 μM compound, [3H] LSD 1.2 nM, human rec. CHO.K1 cells); 80% at 5-HT2C receptor [1]; 54% at 5-HT5A receptor; 53% at 5-HT7 receptor. The Ki at 5HT2B receptor (setting [3]) is 0.263 µM; at 5-HT2C receptor [1] (setting [3]) it was 0.88 µM. The 50% inhibitory concentration (IC50) is 61.7 µM at 5-HT2B receptor and 16.5 µM at 5-HT2C receptor [2]. Besides, the “effect on 5-HT4 (functionality)” value at 5-HT4 receptor is “no significant effect”. For the same molecule, the “nociceptive response, first phase (0-15 min)” value with formalin-induced pain is reported as “without significantly influencing”. Also, the “nociceptive response, phase 2 (15-60 min), inflammatory pain” value in the experiment with formalin-induced pain (FIG. 6) is “significantly reduced the inflammatory pain response”.
